Values quoted from earlier work, collected in patent publication US20250049818A1, “PRENATAL SUPPLEMENT COMPOSITIONS FOR INCREASING BREASTMILK MICRONUTRIENT LEVELS” (SOCIÉTÉ DES PRODUITS NESTLÉ S.A., priority 2021, published 2025).
Where two headings read alike, the source gives them in different places.

What was measured:
[1] = daily supplementation during pregnancy only, zinc 30 mg
[2] = children of developing world, meta-analysis
[3] = 5 mg/day, Indian infants small for gestational age
[4] = 10 mg/day for 120 days, Indian infants aged 6-35 months

| SMILES | mean vitamin D activity (VDA) of human milk (two months post-partum, 1,000 IU group) [IU/L] | mean vitamin D activity (VDA) of human milk (two months post-partum, 2,000 IU group) [IU/L] | mean vitamin D activity (VDA) of human milk (two weeks post-partum, 1,000 IU daily oral, 27-36 weeks of gestation) [IU/L] | mean vitamin D activity (VDA) of human milk (two weeks post-partum, 2,000 IU daily oral, 27-36 weeks of gestation) [IU/L] | human milk zinc concentration ([1]; 1 month postpartum) | human milk zinc concentration ([1]; 6 months postpartum) | reduced diarrhoea [2] [%] | reduction in mortality [3] [%] | reduction in incidence of acute lower respiratory infections [4] [%] |
| --- | --- | --- | --- | --- | --- | --- | --- | --- | --- |
| C=C1CC[C@H](O)C/C1=C/C=C1\CCC[C@]2(C)[C@@H]([C@H](C)CCCC(C)C)CC[C@@H]12 [vitamin D3, cholecalciferol] | 43 | 58 | 51 | 74 | – | – | – | – | – |
| [Zn] [zinc] | – | – | – | – | 49.3 (31.3-62.1) μmol/L | 15.3 (11.8-27.2) μmol/L | 18 | 68 | 45 |
